Measurements: patent US11472803B2, “7-substituted 1-aryl-naphthyridine-3-carboxylic acid amides and use thereof” (Bayer Aktiengesellschaft, priority 2016, dated 2022)

Target: T1, human M2 receptor (Homo sapiens, UniProt P08172)
T1 construct: expressed in transfected cells; host or cells: CHO-DUKX (CHO-DUKX-M2-GIRK)
T1 sequence (P08172 1-466): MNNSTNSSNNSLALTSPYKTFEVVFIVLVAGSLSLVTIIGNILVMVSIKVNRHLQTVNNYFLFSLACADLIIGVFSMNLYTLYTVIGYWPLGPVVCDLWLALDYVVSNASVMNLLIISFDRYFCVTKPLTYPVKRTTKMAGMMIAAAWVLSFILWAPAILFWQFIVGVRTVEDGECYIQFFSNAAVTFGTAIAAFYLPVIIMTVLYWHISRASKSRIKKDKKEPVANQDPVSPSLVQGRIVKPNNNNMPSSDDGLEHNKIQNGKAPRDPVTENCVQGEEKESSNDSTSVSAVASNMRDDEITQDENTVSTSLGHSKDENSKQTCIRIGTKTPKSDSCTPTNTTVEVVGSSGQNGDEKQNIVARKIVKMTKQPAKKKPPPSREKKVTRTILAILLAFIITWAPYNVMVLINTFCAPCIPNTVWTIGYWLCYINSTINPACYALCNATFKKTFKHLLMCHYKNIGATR
Test: Functional M2-GIRK1/4 activation test: allosteric potency (EC50) and efficiency at EC20 acetylcholine
Assay type: cell-based
Conditions: CHO-DUKX-M2-GIRK cells; for EC50: voltage-sensitive dye, acetylcholine at EC20, in some cases mean of two or more determinations; for Emax: boosting of the acetylcholine effect at EC20 acetylcholine concentration
Method in brief: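 Positive allosteric modulation measured as boosting of an EC20 acetylcholine response: hyperpolarization via GIRK1/4 in CHO-DUKX-M2-GIRK cells, monitored by membrane-potential dye fluorescence over 60 s after agonist, compound preadded. Hill-function fit gives EC50 and efficiency.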

EC50 [nM] | Emax [%] | SMILES
150 | 87 | O=C(N[C@@H](C1CC1)C(F)(F)F)c1cn(-c2c(F)cc(F)cc2F)c2nc(N3CCNCC3)c(F)cc2c1=O [Example 81, N-[(1S)-1-Cyclopropyl-2,2,2-trifluoroethyl]-6-fluoro-4-oxo-7-(piperazin-1-yl)-1-(2,4,6-trifluorophenyl)-1,4-dihydro-1,8-naphthyridine-3-carboxamide]
140 | 65 | C[C@H]1CN(c2nc3c(cc2F)c(=O)c(C(=O)N[C@@H](C2CC2)C(F)(F)F)cn3-c2c(F)cc(F)cc2F)CCN1 [Example 82, N-[(1S)-1-Cyclopropyl-2,2,2-trifluoroethyl]-6-fluoro-7-[(3S)-3-methylpiperazin-1-yl]-4-oxo-1-(2,4,6-trifluorophenyl)-1,4-dihydro-1,8-naphthyridine-3-carboxamide]
44 | 94 | O=C(N[C@@H](C1CC1)C(F)(F)F)c1cn(-c2c(F)cc(F)cc2F)c2nc(N3CC4(COC4)C3)c(F)cc2c1=O [Example 83, N-[(1S)-1-Cyclopropyl-2,2,2-trifluoroethyl]-6-fluoro-7-(2-oxa-6-azaspiro[3.3]hept-6-yl)-4-oxo-1-(2,4,6-trifluorophenyl)-1,4-dihydro-1,8-naphthyridine-3-carboxamide]
33 | 100 | CC(C)(C)OC(=O)N1CCC(NC(=O)c2cn(-c3c(F)cc(F)cc3F)c3nc(N4C[C@@H](O)[C@H](O)C4)c(F)cc3c2=O)C(F)(F)C1 (stereo partly drawn) [Example 85, tert-Butyl 4-[({7-[(3R,4R)-3,4-dihydroxypyrrolidin-1-yl]-6-fluoro-4-oxo-1-(2,4,6-trifluoro-phenyl)-1,4-dihydro-1,8-naphthyridin-3-yl}carbonyl)amino]-3,3-difluoropiperidine-1-carboxylate]
14 | 95 | COC(=O)C12CCC(NC(=O)c3cn(-c4c(F)cc(F)cc4F)c4nc(N5C[C@@H](O)[C@H](O)C5)c(F)cc4c3=O)(CC1)C2 [Example 86, Methyl 4-[({7-[(3R,4R)-3,4-dihydroxypyrrolidin-1-yl]-6-fluoro-4-oxo-1-(2,4,6-trifluoro-phenyl)-1,4-dihydro-1,8-naphthyridin-3-yl}carbonyl)amino]bicyclo[2.2.1]heptane-1-carboxylate]
1.4 | 100 | CCC(CC)(CC)NC(=O)c1cn(-c2c(F)cc(F)cc2F)c2nc(N3C[C@@H](O)[C@H](O)C3)c(F)cc2c1=O [Example 87, 7-[(3R,4R)-3,4-Dihydroxypyrrolidin-1-yl]-N-(3-ethylpentan-3-yl)-6-fluoro-4-oxo-1-(2,4,6-tri-fluorophenyl)-1,4-dihydro-1,8-naphthyridine-3-carboxamide]
2.2 | 100 | CCC(C)(CC)NC(=O)c1cn(-c2c(F)cc(F)cc2F)c2nc(N3C[C@@H](O)[C@H](O)C3)c(F)cc2c1=O [Example 88, 7-[(3R,4R)-3,4-Dihydroxypyrrolidin-1-yl]-6-fluoro-N-(3-methylpentan-3-yl)-4-oxo-1-(2,4,6-trifluorophenyl)-1,4-dihydro-1,8-naphthyridine-3-carboxamide]
6.5 | 100 | CC(C)(CC(F)(F)F)NC(=O)c1cn(-c2c(F)cc(F)cc2F)c2nc(N3C[C@@H](O)[C@@H](O)C3)c(F)cc2c1=O [Example 91, 7-[(3R,4S)-3,4-Dihydroxypyrrolidin-1-yl]-6-fluoro-4-oxo-N-(4,4,4-trifluoro-2-methylbutan-2-yl)-1-(2,4,6-trifluorophenyl)-1,4-dihydro-1,8-naphthyridine-3-carboxamide]
35.5 | 96 | CC(C)[C@@H](C)NC(=O)c1cn(-c2c(F)cc(F)cc2F)c2nc(N3C[C@@H](O)[C@@H](O)C3)c(F)cc2c1=O [Example 99, 7-[(3R,4S)-3,4-Dihydroxypyrrolidin-1-yl]-6-fluoro-N-[(2R)-3-methylbutan-2-yl]-4-oxo-1-(2,4,6-trifluorophenyl)-1,4-dihydro-1,8-naphthyridine-3-carboxamide]
